Measurements from PubChem BioAssay AID179 (DTP/NCI, 2004).
Calls of active or inactive are those of the source.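 How the source made its calls: active means compounds giving half or more protection of infected cells from virus-caused growth loss, again on retest; inactive means the rest.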 Where a SMILES comes first, the peptide text is derived from it.

Test system: CEM cells HIV-1 protection, formazan growth assay
Test: NCI AIDS Antiviral Assay
Conditions: for IC50: measured here: growth of uninfected CEM cells
Procedure, shortened: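 Steps: treat uninfected and HIV-1-infected human CEM cells at five drug levels; quantify growth by soluble formazan; retest any compound reaching 50% protection; classify actives from the retest.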

CC(C)(C)C(=O)/C=C/c1ccc(-c2ccccc2)cc1
EC50: > 19.5 µM | IC50: > 19.5 µM

Nc1nc(N)c2ncn(C3OC(CO)CC3F)c2n1 (stereo unspecified)
EC50: 34.7 µM | IC50: 93.3 µM

CCn1cc(C(=O)O)c(=O)c2cc(Cl)c(-n3cccc3)cc21
outcome: inactive

Cc1cc(O)c2c(c1)C(C13Cc4cc(O)c5c(c4[C@H]1C=C[C@@H](O)[C@H]3O)C(=O)c1cccc(O)c1C5=O)OC2=O (stereo partly specified)
outcome: inactive

CC(C)(C)C(=O)OCC1OC(N=[N+]=[N-])C(OC(=O)C(C)(C)C)C(OC(=O)C(C)(C)C)C1OC(=O)C(C)(C)C (stereo unspecified)
EC50: > 200 µM | IC50: > 200 µM

CCOC(=O)/C=C\SCCC(=O)OC
EC50: > 1150 µM | IC50: 741 µM

Nc1cccc2c1-c1c(cccc1[N+](=O)[O-])C2=O
outcome: inactive

CSc1c(C(=O)Nc2ccc(Cl)cc2)c(N)nn1-c1ccccc1
EC50: > 200 µM | IC50: > 200 µM

CC(C)=CCC1(c2ccccc2)Oc2ccccc2-n2cccc2C1=O (stereo unspecified)
EC50: > 200 µM | IC50: 138 µM

Cc1ccccc1SC(/C=C/NNC1=NC(c2ccccc2)C(c2ccccc2)=NN1)c1ccccc1 (stereo unspecified)
EC50: > 20 µM | IC50: > 20 µM

Cc1cn(CCOCCOC(=O)NC(CCCN=C(N)N)C(=O)O)c(=O)[nH]c1=O (stereo unspecified)
EC50: > 200 µM | IC50: > 200 µM

CCCCCCNC(=S)N/N=C(\C)c1ccccn1
EC50: > 0.2 µM | IC50: 0.0324 µM

Cc1ccc(N2C(=O)C=C(C3=C(O)C(=O)N(c4ccc(C)cc4)C3=O)C2=O)cc1
EC50: 135 µM | IC50: > 200 µM

COC1C(O)CC(OC2CC(Oc3cc4cc5c(c(O)c4c(O)c3C)C(=O)[C@@H](OC3CC(OC4CC(OC6CC(C)(O)C(OC(C)=O)C(C)O6)C(O)C(C)O4)C(O)C(C)O3)[C@H]([C@H](OC)C(=O)[C@@H](O)[C@@H](C)O)C5)OC(C)C2OC(C)=O)OC1C (stereo partly specified)
EC50: > 6.17 µM | IC50: 0.00195 µM

CCOC(=O)C1=NN(c2ccccc2)C(=O)/C1=C\N1CC(=O)NC1=S
EC50: > 200 µM | IC50: > 100 µM

CN(C)c1ccc(/C=C(\NC(=O)c2ccccc2)C(=O)Nc2ccccc2C(=O)NN2C(=O)CSC2c2ccc(N(C)C)cc2)cc1 (stereo unspecified)
EC50: > 50.1 µM | IC50: > 50.1 µM

Cc1nc2c(Br)cc(Br)cc2c(=O)n1-c1ccccc1NC1OCC(O)C(O)C1O (stereo unspecified)
EC50: > 200 µM

Nc1nc(Cl)cc(OCC2(CO)CCCC2)n1
EC50: > 200 µM | IC50: 110 µM

CSc1nnnc2ccccc12
EC50: > 200 µM | IC50: 145 µM

COC(=O)c1cc2c(=O)n(C)c(=O)n(C)c2[nH]c1=O
EC50: > 200 µM | IC50: > 200 µM

Clc1nncc2sc(-c3ccccc3)nc12
EC50: > 151 µM | IC50: 8.32 µM

CC1(C)OC(=O)CC(=O)O1
EC50: > 200 µM | IC50: > 200 µM

CN1C(Cl)=NS(=O)(=O)c2ccccc21
EC50: > 200 µM | IC50: > 200 µM

O=[N+]([O-])c1cc(C=NC23CC4CC(CC(C4)C2)C3)ccc1Cl
EC50: > 200 µM | IC50: 3.72 µM

CN(Cc1ccccc1)C(=NC#N)N(C)Cc1ccccc1
EC50: > 170 µM | IC50: 129 µM

Cn1c2ccccc2c2nnc(-n3nc(-c4ccccc4)cc3N)nc21
EC50: > 200 µM | IC50: 53.7 µM

O=C1[C@@H]2C(c3ccccc3)=NO[C@@H]2C(=O)N1c1ccc(Cc2ccc(N3C(=O)[C@H]4C(c5ccccc5)=NO[C@H]4C3=O)cc2)cc1
EC50: > 31.6 µM | IC50: > 31.6 µM

Cc1c(C#N)c(=O)[nH]c(=O)n1CCN1CCN(C(=O)NCCCCCCNC(=O)N2CCN(CCn3c(C)c(C#N)c(=O)[nH]c3=O)CC2)CC1
outcome: inactive

N#C/C(=C\c1ccc(C#N)cc1)c1ccccc1
EC50: > 11.7 µM | IC50: > 11.7 µM

CCOC(=O)c1nc(SC)sc1NC(=O)c1ccccc1N
EC50: > 200 µM | IC50: > 200 µM

N#Cc1ccccc1NC(=O)C(=O)C(C(=O)c1ccccc1-c1ccccc1)C1OC(=O)c2ccccc21 (stereo unspecified)
EC50: > 52.5 µM | IC50: 26.3 µM

CCN(CC)c1ccc2cc(C(=O)Nc3cccc4ccccc34)c(=N)oc2c1
EC50: > 200 µM | IC50: 12.6 µM

O=C1OC(=O)C2=C1C1c3ccccc3C2c2ccccc21
EC50: > 95.5 µM | IC50: 22.4 µM

O=C1c2ccccc2N2OC3(N4CCCC4)CCCC3C12c1ccccc1 (stereo unspecified)
EC50: > 38 µM | IC50: > 38 µM

COc1cccc(N2C(=O)C3C4C=C5c6ccccc6N(c6ccccc6)C5(C3C2=O)[C@H]2C(=O)N(c3cccc(OC)c3)C(=O)[C@@H]42)c1 (stereo partly specified)
EC50: > 4.37 µM | IC50: > 4.37 µM

COc1c(C)c2c(c(O)c1C/C=C(\C)CCC(=O)O)C(=O)OC2
EC50: > 7.76 µM | IC50: 0.0355 µM

O=C1/C(=C/c2ccc(Cl)c(Cl)c2)CN(C(=O)CCN2CCOCC2)C/C1=C\c1ccc(Cl)c(Cl)c1
EC50: > 22.9 µM | IC50: 0.12 µM

COC1(OC)CCCCC2c3cccc(OC(C)=O)c3C21OC(C)=O (stereo unspecified)
EC50: 72.4 µM | IC50: 214 µM

CCOC(=O)c1ncn2c1[nH]c(=S)c1ccccc12
EC50: > 26.3 µM | IC50: > 26.3 µM

CCCCOC(=O)/C(O)=C(\C=NC(=S)c1cccnc1)C(=O)C=C(C)C
EC50: > 200 µM | IC50: 41.7 µM

[O-][n+]1onc2c3nn(-c4ccccc4)nc3ccc21
EC50: > 200 µM | IC50: 12 µM

Cn1c(=O)cc2[nH]c3ccccc3n2c1=O
EC50: > 63.1 µM | IC50: > 63.1 µM

O=C1C(c2ccccc2)=C(c2ccccc2)C1(Cl)Cl
EC50: > 200 µM | IC50: 2.45 µM

CC(=O)OCC12CC(CC1OC(C)=O)c1ccccc12 (stereo unspecified)
EC50: > 251 µM | IC50: > 251 µM

CN1CCN(CCCCN2c3ccccc3Sc3cc(N=[N+]=[N-])ccc32)CC1
EC50: > 200 µM | IC50: 3.63 µM

C[C@H](N[C@H]1CCC[C@]1(O)C#Cc1ccc2c(c1)OCO2)c1ccccc1
EC50: > 50.1 µM | IC50: 28.8 µM

NS(=O)(=O)c1cc2c(cc1Cl)NC(C(=O)c1cc(=O)c3ccc(O)cc3o1)=NS2(=O)=O
EC50: > 513 µM | IC50: > 513 µM

COC(=O)[C@H](Cc1ccccc1)NP(=O)(O)OCC1C=CC(n2cc(C)c(=O)[nH]c2=O)O1 (stereo partly specified)
EC50: 8.71 µM | IC50: > 200 µM

Fc1cccc(F)c1C1SCc2nc3ccc(Cl)cc3n21 (stereo unspecified)
EC50: 4.07 µM | IC50: > 200 µM

O=C1Oc2ccccc2C1C/C(=N\Nc1ccccc1)c1ccccc1O (stereo unspecified)
EC50: > 93.3 µM | IC50: 79.4 µM

CCOC(=O)c1sc2[n+](c1C)C(=O)/C(=C/c1ccc([N+](=O)[O-])cc1)S2
EC50: > 200 µM | IC50: 20.4 µM

CCN(CC)CCCn1c(=O)c2ccccc2n2c3c(=O)n(C)c(=O)n(C)c3nc12
EC50: > 200 µM | IC50: 1.05 µM

CC(C)CC(N)C(=O)NC(CC(=O)O)C(=O)NC(CCCCN)C(=O)NC(C)C(=O)NC(CO)C(=O)NC(Cc1ccc(O)cc1)C(=O)NC(CO)C(=O)NC(C(=O)NC(CC(N)=O)C(=O)NC(Cc1cnc[nH]1)C(=O)NC(CC(C)C)C(N)=O)C(C)O (stereo unspecified) (H-LDKASYSTNHL-NH2; configuration not given here)
EC50: > 50.1 µM | IC50: > 50.1 µM

OC1c2ccccc2C2C(O)c3ccccc3C12 (stereo unspecified)
outcome: inactive

CCOC(=O)c1c(NS(=O)(=O)c2ccc(C)cc2)sc2c1CCCC2
EC50: > 200 µM | IC50: 25.1 µM

CCOC(=O)CCN1C(=O)c2c(NC(=O)C(=O)O)cccc2S1(=O)=O
EC50: > 200 µM | IC50: > 200 µM

CCOC(=O)C1SC(=Nc2ccc(Cl)cc2Cl)N=C1C (stereo unspecified)
outcome: inactive

CCOC(=O)C1=C(C)NC2=C(C(=O)CC(C)(C)C2)C1CCSC (stereo unspecified)
EC50: > 200 µM | IC50: > 200 µM

COc1ccc(CCNC(=O)CCCCCO)cc1OC
EC50: > 200 µM | IC50: 195 µM

c1ncn(C23C4C5C6C4C2C6C53)n1 (stereo unspecified)
EC50: > 200 µM | IC50: > 200 µM

OC1C(O)C2CC1C1C2C2(Cl)C(Cl)=C(Cl)C1(Cl)C2(Cl)Cl (stereo unspecified)
EC50: > 200 µM | IC50: 12.6 µM

CNC(=O)OCc1c(COC(=O)NC)c2n(c1C)CS(=O)(=O)C2
EC50: > 200 µM | IC50: > 200 µM

COc1ccc(-c2cc(O)c3nc4ccccc4n3c2)cc1
EC50: > 200 µM | IC50: > 200 µM

COC1(OC)CC2C(=O)N(Cc3ccccc3)C1C=C2S(=O)(=O)c1ccccc1 (stereo unspecified)
outcome: inactive

CCCCCCCCCCCCNC1=C(Cl)C(=O)C(=O)c2cccnc21
EC50: 53.7 µM | IC50: 174 µM

COC(=O)C1CCC(=O)N1C(c1ccccc1)c1cc(OC)c(OC)c(OC)c1 (stereo unspecified)
EC50: > 200 µM | IC50: 34.7 µM

O=c1[nH]c(=O)n(C2CC(O)C(CO)O2)c2ncncc12 (stereo unspecified)
EC50: > 200 µM | IC50: > 200 µM

Clc1ccc(OCc2nnc3n2N=C(c2ccccc2)CS3)c(Cl)c1
outcome: inactive

O=C(O)/C=C\C(=O)NCCCNC(=O)/C=C\C(=O)O
EC50: > 933 µM | IC50: > 933 µM

COC1OC(OCCC#N)C(OCCC#N)C(OCCC#N)C1OCCC#N (stereo unspecified)
EC50: > 200 µM | IC50: > 200 µM

O=c1c2ccccc2nc(N/N=C/c2ccc([N+](=O)[O-])cc2)n1-c1ccccc1
EC50: > 50.1 µM | IC50: > 50.1 µM

NC(=O)CSSCC(N)=O
EC50: 21.4 µM | IC50: 70.8 µM

C[C@]12CC[C@H](O)CC1=CC[C@@H]1C2CC[C@@]2(C)C1CC[C@@H]2c1nc(-c2ccccc2)cs1 (stereo partly specified)
EC50: > 15.5 µM | IC50: > 15.5 µM

Cc1cc(N(CCOS(C)(=O)=O)CCOS(C)(=O)=O)ccc1C=Nc1ccc(-c2nc(Cc3ccccc3)sc2C)cc1
EC50: > 200 µM | IC50: 0.427 µM

NCCSSCCCCSSCCN
EC50: > 200 µM | IC50: 12.3 µM

Sc1ccc2ccccc2c1CN1CCOCC1
EC50: > 87.1 µM | IC50: 32.4 µM

COC(=O)CCCc1ccc2c(c1)CC1(Cc3ccccc3C1)C2
EC50: > 200 µM | IC50: > 200 µM

COc1ccc2c(=O)c3c([nH]c2c1)OCC3=O
EC50: > 100 µM | IC50: > 100 µM

CC1=CC23C(COC(=O)C24CO4)C(C(=O)O)=CC3C1C (stereo unspecified) (tested in a mixture with another compound)
EC50: > 200 µM | IC50: 47.9 µM

CC(C)(C)O/N=C/c1cc(NC(=S)c2ccsc2)ccc1Cl
EC50: 2.14 µM | IC50: 9.55 µM

CC[C@H]1CN(C)[C@H]2Cc3c([nH]c4ccccc34)C(=O)C[C@H]1C2C(=O)OC (stereo partly specified)
EC50: > 129 µM | IC50: > 129 µM

O=C(N/C(=C\c1ccc(/C=C(\NC(=O)c2ccccc2)c2nc3cc([N+](=O)[O-])ccc3[nH]2)cc1)c1nc2cc([N+](=O)[O-])ccc2[nH]1)c1ccccc1
outcome: inactive

Cn1c(-c2cccc(N)c2)[n+](C)c2ccccc21
EC50: > 200 µM | IC50: 126 µM
